# Measurements reported in patent US20050249818A1, “Polycationic antimicrobial therapeutic” (priority 2004, published 2005).
# System: C. albicans #5
# Type: in vivo
# Procedure: Five-week-old female CD-1 mice were purchased from Charles River Laboratories. Mice were placed in cages in groups of five. To immunosuppress the mice and allow for the establishment of mucosal infection, 5-FU was given intravenously once every 7 days, starting on day-2. Antibiotics were given in the drinking water in autoclaved bottles to reduce potential confounding secondary bacterial infections. Gentamycin at 0.2 mg/ml, clindamycin at 1 mg/ml, vancomycin 1 mg/ml were added to sterile drinking water. Bottles and drinking water were changed every day. Imipenem is given at 5 mg/mouse (IP, QD). Antibiotics were begun on day-3.
# C. albicans #5 was transferred from storage at −80° C. and streaked for isolation on Sabouraud Dextrose Agar plates with chloramphenicol. The plates were incubated at 35° C. for 48 hours. The organisms were inoculated in sterile bottles each containing 100 ml of SAAMF broth and incubated for 48 hours at 35° C. on a gyratory shaker. C. albicans was harvested by transferring the broth culture to sterile 50 ml centrifuge tubes and centrifuged for 15 minutes at 2000 RPM. The cells were washed once with saline and then suspended in saline. The cells were counted using a hemacytometer. Inoculum dilutions were made in sterile water. The final inoculum was 2×10^8 cells/ml of drinking sterile water plus antibiotics. The inoculum viability determined by plating serial dilutions on SDA plates with chloramphenicol was 1.85×10^8 cells per ml. Plates were incubated overnight at 35° C. for verification count of the inoculum.
# In the morning before the preparation of the inoculum the drinking bottles were removed 8 hours prior to replacement with the inoculum suspension of C. albicans. The mice were allowed to drink from this suspension for 24 hours at which time the inoculum suspension was removed and replaced with drinking water containing antibiotics (day 0).
# Beginning on day 4 postinfection, mice were untreated or treated with either, Surfacine D™ diluent (undiluted), 3% Surfacine D, PEG dilutent or 1% clotrimazole.
# PEG 400, 1% clotrimazole in PEG400, or given no treatment. Treatments were done for 10 consecutive days and were given twice daily. Treatments were done by dipping a sterile calcium alginate swab into the solution and then swabbing the oral cavity of the mouse to ensure coverage with the solution. It was not necessary to anesthetize the animals to perform the treatments. Treatment ended on day 13 postinfection.
# On day 15 postinfection all surviving mice were euthanatized using CO2 gas. The tongue of each mouse was swabbed with sterile calcium alginate swab and the swab placed in 0.4 ml of 1×PBS. The swab in PBS was vigorously mixed with a vortex mixer to dissolve the alginate and release the organisms into suspension, and two 10-fold dilutions were made and plated in duplicate on SDA without chloramphenicol.
# Survival was analyzed using a log rank test and comparative CFU between groups was analyzed using a Mann-Whitney U test. A log10 value of 6.5 was assigned as CFU for data points missing due to the death of the animal. This value is arbitrarily set to be higher than any burden recovered from surviving mice and assures that death is considered as a worse outcome than is survival regardless of burden.
compound,measurement,setting,value
"Clc1ccccc1C(c1ccccc1)(c1ccccc1)n1ccnc1 [1% clotrimazole, clotrimazole]",reduction in CFU in comparison with the untreated controls,"CFU recovered from the tongue, day 15 postinfection",~30 fold
same,ranking among the treatments,in vivo,most effective of the treatments
same,behavioral observations during treatments,"in vivo, po",did not exhibit these behaviors or symptoms
same,deaths,"mice, oral swab twice daily for 10 days, to day 15 postinfection",one
same,gross pathological appearance of the tongue mucosal surface at necropsy,"surviving mice, day 15 postinfection",normal mucosal surface appearance
